These results are taken from ChEMBL document CHEMBL1154464, “Constrained analogues of tocainide as potent skeletal muscle sodium channel blockers towards the development of antimyotonic agents” (Eur J Med Chem, 2008).

Experiment [1] is described as follows: Blockade of Nav1.4 sodium channel in frog semitendinosus muscle fibres assessed as phasic block at 10 Hz stimulation frequency by vaseline-gap voltage clamp method. The experiment is classed as tissue-based, Pelophylax lessonae.
A short description of experiment [2]: Blockade of Nav1.4 sodium channel in frog semitendinosus muscle fibres assessed as tonic block elicited by infrequent depolarizing pulses at a frequency of 0.3 Hz by vaseline-gap voltage clamp method. The format is tissue-based, Pelophylax lessonae.
The next experiment deals with Pelophylax lessonae. Nature of the experiment: Ratio of IC50 for tonic blockade of Nav1.4 sodium channel to phasic blockade of Nav1.4 sodium channel in frog semitendinosus muscle fibres. The format is tissue-based.

With `Cc1cccc(C)c1NC(=O)C1CN(Cc2ccccc2)CCN1` (configuration not stated), the IC50 in experiment [1] was 2.4 µM; in experiment [2], 31.6 µM. Further, the Ratio IC50 with Pelophylax lessonae worked out at 13.
Consider `Cc1cccc(C)c1NC(=O)C(C)N` (configuration not stated) [TOCAINIDE], for which the IC50 in experiment [1] amounted to 273 µM; in experiment [2] it was 581 µM.
The corresponding values for `Cc1cccc(C)c1NC(=O)C1CCCN(Cc2ccccc2)C1` (configuration not stated) are 4.5 µM and 38.5 µM.

For orientation: IC50 means the point on the concentration scale where inhibition reaches its midpoint.
